Experimental data: ChEMBL document CHEMBL5550164, “Enhancing anticancer treatment: Development of cRGD-Conjugated F-OH-Evo prodrugs for targeted delivery” (Bioorg Med Chem, 2024)
Calls of active or inactive are those of the source. The calls are words filed in the database; no cut-off is given here.

Key:
U-87 MG [1] = test: Cytotoxicity against human U87 cells measured after 72 hrs by CCK8 assay; format: functional, cell-based, U-87MG ATCC
HeLa = test: Cytotoxicity against human HeLa cells measured after 72 hrs by CCK8 assay; format: functional, cell-based
A549 = test: Cytotoxicity against human A549 cells measured after 72 hrs by CCK8 assay; format: functional, cell-based; settings: A549, 72 h
MCF7 = test: Cytotoxicity against human MCF7 cells measured after 72 hrs by CCK8 assay; format: functional, cell-based; settings: MCF7, 72 h
[2] = Drug uptake in human U87 cells incubated for 24 hrs by confocal laser scanning microscopy; format: ADME, cell-based; settings: u-87mg atcc
[3] = Drug uptake in human MCF7 cells incubated for 24 hrs by confocal laser scanning microscopy; format: ADME, cell-based; settings: mcf7, 24 h
[4] = Drug uptake in human U87 cells at 20 nM by flow cytometry analysis; format: ADME, cell-based; settings: u-87mg atcc, 0.02 µM
[5] = Drug uptake in human U87 cells by flow cytometry analysis; format: ADME, cell-based; settings: u-87mg atcc
[6] = Stability in serum (unknown origin) assessed as compound remaining after 180 mins by HPLC analysis; format: ADME, cell-free; settings: read-out: Stability
[7] = target: T1, DNA topoisomerase 1 (Homo sapiens) (UniProt P11387); test: Inhibition of topoisomerase 1 (unknown origin) mediated DNA relaxation using supercoiled pBR322 DNA as substrate incubated for 1 hr by EtBr staining based agarose gel electrophoresis method; settings: dose 500-1000 µM
T1 sequence (whole entry): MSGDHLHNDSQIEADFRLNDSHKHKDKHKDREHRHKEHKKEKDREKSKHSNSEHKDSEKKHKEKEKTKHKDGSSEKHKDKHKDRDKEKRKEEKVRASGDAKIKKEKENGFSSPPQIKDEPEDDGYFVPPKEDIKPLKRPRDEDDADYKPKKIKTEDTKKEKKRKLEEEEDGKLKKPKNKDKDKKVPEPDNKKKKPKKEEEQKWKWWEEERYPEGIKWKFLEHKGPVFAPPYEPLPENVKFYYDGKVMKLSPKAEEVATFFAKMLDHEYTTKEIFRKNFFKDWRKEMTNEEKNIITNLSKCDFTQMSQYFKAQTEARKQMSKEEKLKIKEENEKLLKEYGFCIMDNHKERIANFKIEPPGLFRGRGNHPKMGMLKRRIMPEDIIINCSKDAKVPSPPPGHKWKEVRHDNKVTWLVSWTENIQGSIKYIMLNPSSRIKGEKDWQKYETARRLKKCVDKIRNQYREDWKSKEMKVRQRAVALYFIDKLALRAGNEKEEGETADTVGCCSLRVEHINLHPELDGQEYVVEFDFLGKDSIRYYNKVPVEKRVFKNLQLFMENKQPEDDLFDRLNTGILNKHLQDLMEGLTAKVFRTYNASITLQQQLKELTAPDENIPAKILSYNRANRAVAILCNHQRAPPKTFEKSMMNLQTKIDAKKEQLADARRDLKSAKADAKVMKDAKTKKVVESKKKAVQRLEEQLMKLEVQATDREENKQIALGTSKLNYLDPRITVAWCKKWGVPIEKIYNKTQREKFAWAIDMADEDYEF

U-87 MG [8] = test: Inhibition of cell migration in human U87 cells at 25 nM after 16 hrs by scratch assay; format: functional, cell-based; settings: U-87MG ATCC
U-87 MG [9] = test: Inhibition of colony formation in human U87 cells at 25 nM pretreated for 24 hrs followed by media replacement for every 3 days by crystal violet staining based assay; format: functional, cell-based; settings: U-87MG ATCC
U-87 MG [10] = test: Potency index ratio of 3-fluoro-10-hydroxy-Evodiamine IC50 to test compound IC50 for cytotoxicity against human U87 cells; format: functional, U-87MG ATCC
U-87 MG [11] = test: Inhibition of cell migration in human U87 cells at 25 nM incubated for 48 hrs by transwell assay relative to control; format: functional, U-87MG ATCC
U-87 MG [12] = test: Induction of cell cycle arrest at G2 phase in human U87 cells at 25 nM incubated for 24 hrs by flow cytometry analysis; format: functional, U-87MG ATCC

Row | Compound | IC50 (U-87 MG [1]) [nM] | IC50 (HeLa) [nM] | IC50 (A549) [nM] | IC50 (MCF7) [nM] | other results
1 | CN1c2ccc(F)cc2C(=O)N2CCc3c([nH]c4ccc(OC(=O)CSCC(=O)NC[C@@H]5NC(=O)[C@H](Cc6ccccc6)NC(=O)[C@H](CC(=O)O)NC(=O)CNC(=O)[C@H](CCCNC(=N)N)NC5=O)cc34)C21 (stereo partly drawn) | 130 | 74.8 | 51.5 | 30.6 | –
2 | CN1c2ccc(F)cc2C(=O)N2CCc3c([nH]c4ccc(OC(=O)CSCC(=O)NCC[C@@H]5NC(=O)[C@H](Cc6ccccc6)NC(=O)[C@H](CC(=O)O)NC(=O)CNC(=O)[C@H](CCCNC(=N)N)NC5=O)cc34)C21 (stereo partly drawn) | 53 | 53.7 | 38.1 | 60.2 | –
3 | CN1c2ccc(F)cc2C(=O)N2CCc3c([nH]c4ccc(O)cc34)[C@H]21 | 139 | 93.4 | 22.4 | 5.2 | –
4 | CN1c2ccc(F)cc2C(=O)N2CCc3c([nH]c4ccc(OC(=O)CCSSCCC(=O)NCCC[C@@H]5NC(=O)[C@H](Cc6ccccc6)NC(=O)[C@H](CC(=O)O)NC(=O)CNC(=O)[C@H](CCCNC(=N)N)NC5=O)cc34)C21 (stereo partly drawn) | > 500 | 322 | > 500 | 205 | –
5 | CN1c2ccc(F)cc2C(=O)N2CCc3c([nH]c4ccc(OC(=O)CCCC(=O)NCC[C@@H]5NC(=O)[C@H](Cc6ccccc6)NC(=O)[C@H](CC(=O)O)NC(=O)CNC(=O)[C@H](CCCNC(=N)N)NC5=O)cc34)C21 (stereo partly drawn) | 144 | 306 | 344 | 70.4 | –
6 | CN1c2ccc(F)cc2C(=O)N2CCc3c([nH]c4ccc(OC(=O)CCSSCCC(=O)NCCCC[C@@H]5NC(=O)[C@H](Cc6ccccc6)NC(=O)[C@H](CC(=O)O)NC(=O)CNC(=O)[C@H](CCCNC(=N)N)NC5=O)cc34)C21 (stereo partly drawn) | 458 | 197 | 387 | 163 | –
7 | CN1c2ccc(F)cc2C(=O)N2CCc3c([nH]c4ccc(OC(=O)CCCC(=O)NC[C@@H]5NC(=O)[C@H](Cc6ccccc6)NC(=O)[C@H](CC(=O)O)NC(=O)CNC(=O)[C@H](CCCNC(=N)N)NC5=O)cc34)C21 (stereo partly drawn) | 285 | 302 | 307 | 137 | –
8 | CCN(CC)c1ccc2cc(C(=O)NCCCCCC(=O)NCCCCC(NC(=O)CSCC(=O)Oc3ccc4[nH]c5c(c4c3)CCN3C(=O)c4cc(F)ccc4N(C)C53)C(=O)NCCC[C@@H]3NC(=O)[C@H](Cc4ccccc4)NC(=O)[C@H](CC(=O)O)NC(=O)CNC(=O)[C@H](CCCNC(=N)N)NC3=O)c(=O)oc2c1 (stereo partly drawn) | – | – | – | – | Drug uptake [2]: Active; Drug uptake [3]: Not Active; Drug uptake [4]: 44.8%; Drug uptake [5]: Dose-Dependent Effect and Tde
9 | CN1c2ccc(F)cc2C(=O)N2CCc3c([nH]c4ccc(OC(=O)CCSSCCC(=O)NCC[C@@H]5NC(=O)[C@H](Cc6ccccc6)NC(=O)[C@H](CC(=O)O)NC(=O)CNC(=O)[C@H](CCCNC(=N)N)NC5=O)cc34)C21 (stereo partly drawn) | 247 | > 500 | > 500 | 164 | –
10 | CN1c2ccc(F)cc2C(=O)N2CCc3c([nH]c4ccc(OC(=O)CCCC(=O)NCCCC[C@@H]5NC(=O)[C@H](Cc6ccccc6)NC(=O)[C@H](CC(=O)O)NC(=O)CNC(=O)[C@H](CCCNC(=N)N)NC5=O)cc34)C21 (stereo partly drawn) | 287 | 359 | 479 | 69.8 | –
11 | CN1c2ccc(F)cc2C(=O)N2CCc3c([nH]c4ccc(OC(=O)CCCC(=O)NCCC[C@@H]5NC(=O)[C@H](Cc6ccccc6)NC(=O)[C@H](CC(=O)O)NC(=O)CNC(=O)[C@H](CCCNC(=N)N)NC5=O)cc34)C21 (stereo partly drawn) | > 500 | 324 | 460 | 92.2 | –
12 | CN1c2ccc(F)cc2C(=O)N2CCc3c([nH]c4ccc(OC(=O)CSCC(=O)NCCCC[C@@H]5NC(=O)[C@H](Cc6ccccc6)NC(=O)[C@H](CC(=O)O)NC(=O)CNC(=O)[C@H](CCCNC(=N)N)NC5=O)cc34)C21 (stereo partly drawn) | 83.6 | 202 | 54.1 | 109 | –
13 | CN1c2ccc(F)cc2C(=O)N2CCc3c([nH]c4ccc(OC(=O)CSCC(=O)NCCC[C@@H]5NC(=O)[C@H](Cc6ccccc6)NC(=O)[C@H](CC(=O)O)NC(=O)CNC(=O)[C@H](CCCNC(=N)N)NC5=O)cc34)C21 (stereo partly drawn) | 29.9 | 125 | 45.7 | 83.2 | remaining at 3 h [6]: 60%; inhibition [7]: Dose-Dependent Effect; inhibition (U-87 MG [8]): Active; inhibition (U-87 MG [9]): Active; Ratio IC50 (U-87 MG [10]): 5; inhibition at 0.025 µM (U-87 MG [11]): 25.5%; Activity (U-87 MG [12]): >90%
14 | CN1c2ccc(F)cc2C(=O)N2CCc3c([nH]c4ccc(OC(=O)CCSSCCC(=O)NC[C@@H]5NC(=O)[C@H](Cc6ccccc6)NC(=O)[C@H](CC(=O)O)NC(=O)CNC(=O)[C@H](CCCNC(=N)N)NC5=O)cc34)C21 (stereo partly drawn) | 406 | 282 | > 500 | 138 | –
